Laboratory results from publication PMC2632993, “Conformational changes in α7 acetylcholine receptors underlying allosteric modulation by divalent cations” (BMC Pharmacology, 2009).
“Also recorded” adds a separate entry of the source.

Key:
Assay type in all cases: cell-based, chick
[1] = target: α7 AChR M^37C mutant (C^115A/L^247T background) (Gallus gallus, UniProt P22770, C138A/L270T/M60C); assay: ACh dose-response, two-electrode voltage clamp in Xenopus oocytes; conditions: fraction of maximal ACh-evoked current evoked by 10 mM Ba^2+ in the absence of ACh
Excerpt: (§1) A cDNA clone of the chick α7 receptor containing two mutations (C^115A, L^247T) was used as the parental phenotype for mutations described in this study. We mutated the lone unpaired cysteine in the extracellular domain (C^115) to alanine to allow for a more straightforward interpretation of thiol modification experiments. […] We included the mutation of leucine 247 in the M2 transmembrane domain (L^247T; L9'T) because of its large current amplitudes and non-desensitizing kinetics compared to wild-type α7 receptors. […] All mutations were introduced by site-directed mutagenesis using the QuikChange method (Agilent Technologies, La Jolla, CA) as described previously, and were confirmed by DNA sequencing.
(§2) cRNA was prepared using the T7 RNA polymerase and mMessage mMachine kit as described by the manufacturer (Applied Biosystems, Austin, TX). Oocytes were surgically removed and prepared from female Xenopus laevis in accordance with UNC Institutional Animal Care and Use Committee guidelines. Oocytes were injected with 20 ng of cRNA and incubated at 18°C in ND96 (96 mM NaCl, 2 mM KCl, 1 mM MgCl2, 1.8 mM CaCl2, 5 mM Na pyruvate, 50 μg/ml gentamicin, 5 mM HEPES, pH 7.5) for 2–5 days before use. For some mutants we co-injected cRNA encoding the human RIC-3 [38], a protein shown to enhance expression of α7 AChRs in both mammalian cells and oocytes.
(§3) Oocytes were superfused in normal extracellular solution containing a reduced Ca^2+ concentration (ESLC; 96 mM NaCl, 2 mM KCl, 1 mM MgCl2, 0.1 mM CaCl2, and 10 mM HEPES, pH 7.5). […] Two-electrode voltage clamp was performed with a GeneClamp 500B controlled by pCLAMP8 software (Molecular Devices, Sunnyvale, CA). Electrodes were filled with 3 M KCl contacting Ag-AgCl wires and had resistances of 0.5 to 2.0 MΩ. Currents were recorded at a constant holding potential of -60 mV. Currents were low pass filtered at 50 Hz and sampled at 100 Hz. Agonist dose-response curves were obtained as described previously, and data were fit to the Hill equation using Origin software (Microcal Software, Northampton, MA).
(§4) MTSEA was prepared daily in distilled water and stored on ice. Stock solution was diluted to the appropriate working concentration in ESLC immediately before each application. […] To measure the effect of Ba^2+ on modification rates we pre-applied 10 mM Ba^2+ for 30 seconds prior to co-application of 10 mM Ba^2+ plus MTSEA. […] Kinetic data were analyzed as described previously; rate data were fit to a single exponential to extract a pseudo-first order rate constant; this was divided by the MTSEA concentration used to determine the second order rate constant for thiol modification.

[2] = target: α7 AChR E^172C mutant (C^115A/L^247T background) (Gallus gallus, UniProt P22770, C138A/E195C/L270T); assay: as above
Excerpt: as §1, §2, §3, §4

[3] = target: α7 C^115A/L^247T receptor (Gallus gallus, UniProt P22770, C138A/L270T); assay: as above
Excerpt: as §1, §2, §3, §4

[4] = target: α7 AChR E^44C mutant (C^115A/L^247T background) (Gallus gallus, UniProt P22770, C138A/E67C/L270T); assay: as above
Excerpt: as §1, §2, §3, §4

[5] = target: α7 AChR M^40C/E^172Q mutant (C^115A/L^247T background) (Gallus gallus, UniProt P22770, C138A/E195Q/L270T/M63C); assay: as above
Excerpt: as §1, §2, §3, §4

[6] = target: α7 AChR N^170C mutant (C^115A/L^247T background) (Gallus gallus, UniProt P22770, C138A/L270T/N193C); assay: as above; conditions: co-expression with human RIC-3, fraction of maximal ACh-evoked current evoked by 10 mM Ba^2+ in the absence of ACh
Excerpt: as §1, §2, §3, §4

[7] = target: α7 AChR N^52C mutant (C^115A/L^247T background) (Gallus gallus, UniProt P22770, C138A/L270T/N75C); assay: as above
Excerpt: as §1, §2, §3, §4

[8] = target: T1, α7 AChR M^40C mutant (C^115A/L^247T background) (Gallus gallus, UniProt P22770, C138A/L270T/M63C); conditions: fraction of maximal ACh-evoked current evoked by 10 mM Ba^2+ in the absence of ACh
T1 construct: expressed in transfected cells; host or cells: Xenopus laevis oocytes injected with cRNA
Excerpt: as §1, with “sequencing. […]” for “sequencing.”
Oocytes were superfused in normal extracellular solution containing a reduced Ca^2+ concentration (ESLC; 96 mM NaCl, 2 mM KCl, 1 mM MgCl2, 0.1 mM CaCl2, and 10 mM HEPES, pH 7.5). […] Currents were recorded at a constant holding potential of -60 mV. […]
MTSEA was prepared daily in distilled water and stored on ice. […] Kinetic data were analyzed as described previously; rate data were fit to a single exponential to extract a pseudo-first order rate constant; this was divided by the MTSEA concentration used to determine the second order rate constant for thiol modification.

[9] = co-expression with human RIC-3, fraction of maximal ACh-evoked current evoked by 10 mM Ba^2+ in the absence of ACh
[10] = fraction of maximal ACh-evoked current evoked by 10 mM Ba^2+ in the absence of ACh

With `[Ba+2].[Cl-].[Cl-]` [Ba^2+, BaCl2] the “Ba^2+ efficacy” value [1] was 0.2, the “positive allosteric modulation of ACh currents by Ba^2+” value (from here on “positive allosteric modulation”) ([2]; 10 mM Ba^2+) was “no positive allosteric modulation” and the “Ba^2+ efficacy” value [2, 9] was 0.02. The “decrease in ACh EC50 (leftward shift in the dose-response curve) caused by Ba^2+” value ([3]; 10 mM Ba^2+) was ~ 10 fold, the “Ba^2+ efficacy” value [3, 10] was 0.1 and the “positive allosteric modulation” value ([4]; 10 mM Ba^2+) was “eliminated; also recorded: no positive allosteric modulation”. The “Ba^2+ efficacy” value [4, 10] was 0.01, the “positive allosteric modulation” value ([5]; 10 mM Ba^2+) was “not positively modulated” and the “Ba^2+ efficacy” value [5, 9] was 0.02. For the same molecule, the “Ba^2+ efficacy” value [6] was 0.03, the “agonism by Ba^2+ in the absence of ACh” value ([7]; 10 mM Ba^2+) was “high partial agonism” and the “Ba^2+ efficacy” value [7, 10] was 0.6. For the same molecule, the “Ba^2+ efficacy” value [8] was 0.1.
